Experimental data published in paper PMC6877910, “Astrocyte-Targeted Transporter-Utilizing Derivatives of Ferulic Acid Can Have Multifunctional Effects Ameliorating Inflammation and Oxidative Stress in the Brain” (Oxidative Medicine and Cellular Longevity, 2019).

Experiments:
OATP/OAT = assay: Transporter-mediated cellular uptake into primary astrocytes, secondary mechanism (Eadie-Hofstee); assay type: in vitro ADME, mouse; conditions: Eadie-Hofstee analysis, mean ± SD, n = 3
Description: (§1) For the cell uptake experiments, the astrocytes were seeded on 24-well plates with a density of 10 × 10^4 cells/well three days before the experiments as described earlier. Cellular uptake of derivatives 1-3 of FA was studied by incubating the cells at 37°C for 30 min (uptake was linear with all compounds up to 30 min) with compounds at the concentration of 1-200 μM in prewarmed HBSS buffer (250 μL). […]; Agilent Technologies, Santa Clara, CA). The concentrations of each compound in cell lysates were calculated from the standard curve that was prepared by spiking known amounts of compounds to ACN including the selected internal standard and then normalized with protein concentration. The protein concentrations on each plate were determined as a mean of three samples by Bio-Rad Protein Assay, based on the Bradford dye-binding method, using bovine serum albumin (BSA) as a standard protein and measuring the absorbance (595 nm) by a multiplate reader (EnVision, PerkinElmer, Inc., Waltham, MA, USA).
(§2) All the cellular studies were carried out as three biological replicates from the same cell passage. The function of LAT1 was followed between the used cell passages (7-16) with a LAT1 probe substrate, [^14C]-L-leucine, and noticed to be unaltered. All statistical analyses, including Michaelis-Menten, Eadie-Hofstee, and Hanes-Woolf analyses, were performed using GraphPad Prism v. 5.03 software (GraphPad Software, San Diego, CA, USA). Statistical differences between groups were tested using one-way ANOVA, followed by Tukey's multiple comparison test, and presented as the mean ± SD, with significant differences denoted by asterisks (^∗P < 0.05, ^∗∗P < 0.01, and ^∗∗∗P < 0.001).

mTOR = assay: Total amount of mTOR (ELISA) in cells; assay type: cell-based, mouse; conditions: 100 μM; 48 h
Description: Enzyme-Linked Immunosorbent Assay (ELISA) kits were used (mTOR SimpleStep ELISA Kit and NFκB p65 Total SimpeStep ELISA Kit, Abcam, Cambridge, UK) to quantify mammalian (or mechanistic) target of rapamycin (mTOR) and transcription factor NF-κB amounts, respectively. […] The control wells were treated with the solvent only (0.5% DMSO). Cells were solubilized using the provided extraction buffer with the kit, incubated on ice for 20 minutes and centrifuged at 18 000 × g for 20 min at 4°C. The supernatants were stored at -80°C till the day of the analysis. Standards and samples were then analyzed following the manufacturer's protocol (ELISA sandwich method) and by reading the absorbance with the EnVision plate reader (EnVision, PerkinElmer, Inc., Waltham, MA, USA) at 450 nm. The results were analyzed as pmol of formed mTOR or NF-κB per mL.

primary astrocytes = assay: Astrocyte cell growth / viability (resazurin); assay type: cell-based; conditions: for Effect on astrocyte viability at low concentrations: 5-100 μM, 72 h; for Concentrations with significant antiproliferative efficacy on astrocytes: 72 h incubation, 5-400 μM
Description: Primary astrocytes were seeded at the density of 10 × 10^3 cells/well onto collagen-coated 96-well plates. The cells were used for the proliferation experiments one day after seeding. Concentrations of 5-400 μM FA or its LAT1-utilizing derivatives 1-3 were added into the growth medium and incubated for 3 days. Each day, the cell viability was determined by resazurin cell proliferation kit (Sigma, St. Louis, MO, USA), which is directly proportional to aerobic respiration and cellular metabolism of cells. The samples were measured fluorometrically by monitoring the increase in fluorescence at λex 560 nm and λem 590 nm (EnVision, PerkinElmer, Inc., Waltham, MA, USA). The cell viability was also followed by visualizing the wells with microscopy. The ability of compounds to inhibit the viability of the cells was expressed as percentages (%) compared to the untreated controls.

LAT1 = biological target: T1, LAT1 (Mus musculus, UniProt Q9Z127); assay: Transporter-mediated cellular uptake into primary astrocytes, primary mechanism (Eadie-Hofstee); assay type: in vitro ADME; conditions: Eadie-Hofstee analysis, mean ± SD, n = 3
T1 construct: mouse primary astrocytes, from which we have recently characterized LAT1 expression and function; endogenous in cells; host or cells: mouse primary astrocytes (cortex and hippocampi of 2-day-old wild-type and APP/PS1 mice)
T1 sequence (Q9Z127 whole entry): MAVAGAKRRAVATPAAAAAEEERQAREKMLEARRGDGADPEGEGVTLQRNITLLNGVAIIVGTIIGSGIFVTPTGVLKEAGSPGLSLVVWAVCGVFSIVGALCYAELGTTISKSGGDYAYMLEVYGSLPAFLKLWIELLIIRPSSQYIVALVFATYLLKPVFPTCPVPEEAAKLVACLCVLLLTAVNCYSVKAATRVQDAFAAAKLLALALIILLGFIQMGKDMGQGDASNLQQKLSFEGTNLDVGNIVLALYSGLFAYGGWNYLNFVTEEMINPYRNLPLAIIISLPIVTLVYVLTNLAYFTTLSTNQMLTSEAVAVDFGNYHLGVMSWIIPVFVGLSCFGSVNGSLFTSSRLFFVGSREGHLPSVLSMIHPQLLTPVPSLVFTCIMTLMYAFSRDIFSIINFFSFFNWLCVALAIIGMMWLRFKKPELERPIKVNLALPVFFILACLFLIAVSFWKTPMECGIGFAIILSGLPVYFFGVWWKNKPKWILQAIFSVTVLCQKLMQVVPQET
T1 sequence (P10852 whole entry partner): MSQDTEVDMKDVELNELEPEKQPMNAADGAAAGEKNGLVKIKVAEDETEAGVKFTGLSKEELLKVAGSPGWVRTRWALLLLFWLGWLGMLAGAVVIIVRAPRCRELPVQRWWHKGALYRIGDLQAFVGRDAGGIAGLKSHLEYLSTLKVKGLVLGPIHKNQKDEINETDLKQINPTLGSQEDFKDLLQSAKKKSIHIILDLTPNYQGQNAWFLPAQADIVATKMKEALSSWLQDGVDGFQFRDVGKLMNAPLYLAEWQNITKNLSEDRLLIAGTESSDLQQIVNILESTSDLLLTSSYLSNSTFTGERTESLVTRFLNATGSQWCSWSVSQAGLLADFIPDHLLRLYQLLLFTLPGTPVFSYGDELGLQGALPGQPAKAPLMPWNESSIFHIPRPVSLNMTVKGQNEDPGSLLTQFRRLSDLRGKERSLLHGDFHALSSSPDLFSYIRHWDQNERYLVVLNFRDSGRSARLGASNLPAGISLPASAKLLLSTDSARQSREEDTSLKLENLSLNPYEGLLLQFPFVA
Description: as §1, §2

[1] = biological target: T2, butyrylcholinesterase (BChE) (Mus musculus, UniProt Q03311); assay: biochemical; assay type: biochemical; conditions: mouse brain S9 subcellular fraction, 30 min end point, mean ± SD, n = 3; for IC50: read-out: BuChE IC50 value
T2 construct: mouse brain S9 fraction was prepared by homogenizing freshly collected mouse brain; from tissue; host or cells: mouse brain S9 fraction (9 000 x g supernatant)
T2 sequence (Q03311 30-603): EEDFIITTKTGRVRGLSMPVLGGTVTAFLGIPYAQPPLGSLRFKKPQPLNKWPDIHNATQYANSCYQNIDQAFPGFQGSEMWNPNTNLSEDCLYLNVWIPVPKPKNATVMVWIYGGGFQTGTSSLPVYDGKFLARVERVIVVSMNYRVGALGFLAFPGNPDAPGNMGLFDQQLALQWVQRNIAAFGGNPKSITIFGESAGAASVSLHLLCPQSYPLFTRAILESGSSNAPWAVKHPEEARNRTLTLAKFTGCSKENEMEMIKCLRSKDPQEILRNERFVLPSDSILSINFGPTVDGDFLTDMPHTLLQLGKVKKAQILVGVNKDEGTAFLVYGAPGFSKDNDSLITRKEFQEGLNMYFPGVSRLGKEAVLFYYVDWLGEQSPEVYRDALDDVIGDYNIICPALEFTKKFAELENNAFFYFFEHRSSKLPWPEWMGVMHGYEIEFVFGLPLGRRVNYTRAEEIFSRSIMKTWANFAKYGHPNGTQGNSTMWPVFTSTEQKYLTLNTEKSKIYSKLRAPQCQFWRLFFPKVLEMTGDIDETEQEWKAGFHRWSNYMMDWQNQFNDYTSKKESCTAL
Description: Briefly, mouse brain S9 fraction was prepared by homogenizing freshly collected mouse brain with 50 mM Tris-buffered saline (TBS) (pH 7.4) (1 : 4, w/v), centrifuging the homogenate at 9 000 × g for 20 min at 4°C and collecting the supernatant. The supernatant was then diluted at 1 : 10 with phosphate-buffered saline (100 mM; pH 7.0) and mixed with Ellman's reagent (5,5′-dithiobis-(2-nitrobenzoic acid); DTNB; 1 mM) and studied compounds in DMSO (DMSO concentration was less than 0.5%) on a 96-well plate as 3 parallel assays.

purified human BACE1 = biological target: T3, purified human BACE1 (Homo sapiens, UniProt P56817); assay: BACE1 FRET inhibition assay (SensoLyte 520); assay type: biochemical; conditions: 1 and 10 μM; 30 min
T3 construct: purchased AnaSpec, Inc., Fremont, CA, USA SensoLyte 520 BACE1 Assay kit (catalogue number not given)
T3 sequence (P56817 46-501): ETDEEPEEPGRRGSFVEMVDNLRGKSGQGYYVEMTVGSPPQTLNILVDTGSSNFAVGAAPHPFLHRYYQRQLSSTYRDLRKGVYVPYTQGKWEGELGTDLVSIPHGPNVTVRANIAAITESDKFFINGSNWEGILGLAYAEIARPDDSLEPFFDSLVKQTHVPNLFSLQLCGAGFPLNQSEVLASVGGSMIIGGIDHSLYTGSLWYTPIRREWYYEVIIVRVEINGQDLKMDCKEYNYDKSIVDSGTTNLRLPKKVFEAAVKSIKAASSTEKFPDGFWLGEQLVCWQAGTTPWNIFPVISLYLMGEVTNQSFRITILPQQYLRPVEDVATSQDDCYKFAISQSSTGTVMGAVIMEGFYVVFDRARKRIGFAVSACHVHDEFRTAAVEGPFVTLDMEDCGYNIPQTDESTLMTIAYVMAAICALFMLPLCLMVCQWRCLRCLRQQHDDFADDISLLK
Source text: A fluorometric assay was used to screen the inhibitory effect of the studied compounds on purified human BACE1 using a fluorescence resonance energy transfer (FRET) peptide technique (SensoLyte© 520 BACE1 Assay kit, AnaSpec, Inc., Fremont, CA, USA) according to the manufacturer's protocol. […] The sequence of the FRET peptide has been derived from the β-secretase cleavage site of β-amyloid precursor protein (APP) with Swedish mutation, which enhances β-secretase to process APP resulting in an early onset of AD. Thus, active β-secretase cleaved FRET substrate into two separate fragments resulting in the release of HiLyte™ Fluor 488 fluorescence that was measured by the EnVision plate reader (EnVision, PerkinElmer, Inc., Waltham, MA, USA) at λex 490 nm and λem 520 nm. […] The results were reported as percentages (%), with control sample representing 100% β-secretase activity.

Row | Structure (SMILES) | Secondary transport mechanism (OATP/OAT) K m (OATP/OAT) | Secondary transport mechanism (OATP/OAT) V max (OATP/OAT) | Reduction of total amount of mTOR (mTOR) | Effect on astrocyte viability at low concentrations (primary astrocytes) | Concentrations with significant antiproliferative efficacy on astrocytes (primary astrocytes) | Primary transport mechanism (LAT1) K m (LAT1) | Primary transport mechanism (LAT1) V max (LAT1) | BuChE IC50 value [1] | BACE1 inhibition (purified human BACE1) | Increase of the amount of mTOR (mTOR) | IC50 [1]
1 | COc1cc(/C=C/C(=O)O)ccc1O [FA, trans-4-hydroxy-3-methoxycinnamic acid, reference compound] | Autoactivation | Autoactivation | did not affect | increased the viability | above 200 μM | Autoactivation | Autoactivation | No inhibition | ~97% |  | 
2 | COc1cc(C=CC(=O)NCc2cccc(CC(N)C(=O)O)c2)ccc1O (centres unmarked) [FA-derivative 1] | 101.1 ± 19.7 µM | 0.033 ± 0.402 nmol/min/mg protein |  | increased the viability | above 200 μM | 4.1 ± 2.1 µM | 0.008 ± 0.002 nmol/min/mg protein |  | 78–91% | approximately 28% | 220.8 ± 1.14 µM
3 | COc1cc(C=CC(=O)Nc2cccc(CC(N)C(=O)O)c2)ccc1O (centres unmarked) [FA-derivative 2] | 153.8 ± 15.0 µM | 0.172 ± 0.013 nmol/min/mg protein | approximately 32% | increased the viability | above 200 μM | 4.2 ± 0.8 µM | 0.013 ± 0.001 nmol/min/mg protein | No inhibition | 91–97% |  | 
4 | COc1cc(C=CC(=O)Oc2cccc(CC(N)C(=O)O)c2)ccc1O (centres unmarked) [FA-derivative 3] | Autoactivation | Autoactivation | approximately 14% |  | above 200 μM | Autoactivation | Autoactivation |  | 81–91% |  | 236.1 ± 1.26 µM
